Measured values as given in the supplement of paper PMC10331698.
± gives the standard deviation of the averaged measurements.

Tests used:
Test in all cases: level (log10 ratio to DMSO vehicle control); higher = higher biomarker level / cell amount than vehicle control
Conditions in all cases: in DMSO
[1] = compound: O=C(O)C(F)(F)C(F)(F)C(F)(F)C(F)(F)C(F)(F)C(F)(F)C(F)(F)C(F)(F)C(F)(F)C(F)(F)C(F)(F)C(F)(F)C(F)(F)F [Perfluorotetradecanoic acid]
Protocol: (§1)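 BioMAP Diversity Plus panel of 12 human primary cell co-culture systems (3C, 4H, LPS, SAg, BT, BF4T, BE3C, CASM3C, HDF3CGF, KF3CT, MyoF, Mphg). Compounds were added 1 h before stimulation and left for 24 h (MyoF 48 h; BT 72 h for soluble read-outs or 6 d for IgG). Biomarkers were read by ELISA, cytotoxicity by SRB, PBMC viability and proliferation by Alamar Blue. Each well value was divided by the mean of 8 DMSO control wells on the same plate and log10 transformed; duplicate blinded samples were tested at 4 concentrations.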

[2] = compound: O=C(O)C(F)(F)C(F)(F)C(F)(F)C(F)(F)C(F)(F)C(F)(F)C(F)(F)C(F)(F)Cl [9-Chloro-perfluorononanoic acid]
Protocol: as §1

[3] = compound: C=CC(=O)OCCC(F)(F)C(F)(F)C(F)(F)C(F)(F)F [2-(Perfluorobutyl)ethyl acrylate]
Protocol: as §1

[4] = compound: OCC(F)(F)C(F)(F)C(F)(F)C(F)(F)C(F)(F)C(F)F [1H,1H,7H-Dodecafluoro-1-heptanol]
Protocol: as §1

[5] = compound: O=S(=O)(O)C(F)(F)C(F)(F)C(F)(F)C(F)(F)F [Perfluorobutanesulfonic acid]
Protocol: as §1

[6] = compound: N=C(N)C(F)(F)C(F)(F)C(F)(F)C(F)(F)C(F)(F)C(F)(F)C(F)(F)F [Perfluorooctanamidine]
Protocol: as §1

[7] = compound: Cn1cnc([N+](=O)[O-])c1Sc1ncnc2[nH]cnc12 [Azathioprine]
Protocol: as §1

Row | Test System | level (log10) ([1]; 6700 nM) | level (log10) ([1]; 20000 nM) | level (log10) ([2]; 6700 nM) | level (log10) ([2]; 20000 nM) | level (log10) ([3]; 6700 nM) | level (log10) ([3]; 20000 nM) | level (log10) ([3]; 60000 nM) | level (log10) ([4]; 6700 nM) | level (log10) ([4]; 20000 nM) | level (log10) ([4]; 60000 nM) | level (log10) ([5]; 6700 nM) | level (log10) ([5]; 20000 nM) | level (log10) ([5]; 60000 nM) | level (log10) ([6]; 6700 nM) | level (log10) ([6]; 20000 nM) | level (log10) ([6]; 60000 nM) | level (log10) ([7]; 1400 nM) | level (log10) ([7]; 4200 nM) | level (log10) ([7]; 13000 nM) | level (log10) ([7]; 38000 nM)
1 | BT:sIL-6 | -0.0615 ± 0.052 | -0.0545 ± 0.13 | 0.0155 ± 0.022 | 0.0135 ± 0.018 | -0.063 ± 0.041 | -0.153 ± 0.0028 | -0.76 ± 0.15 | 0.007 ± 0.085 | -0.037 ± 0.014 | -0.113 ± 0.068 | -0.035 ± 0.061 | 0.004 ± 0.067 | 0.012 ± 0.02 | 0.0205 ± 0.025 | -0.0285 ± 0.016 | -0.097 | -0.0045 ± 0.042 | -0.0485 ± 0.074 | -0.228 ± 0.013 | -0.563 ± 0.0042
2 | BF4T:Keratin 8/18 | -0.0135 ± 0.015 | 0.0195 ± 0.032 | -0.004 ± 0.0057 | -0.0105 ± 0.0035 | -0.003 ± 0.055 | 0.0035 ± 0.059 | 0.0085 ± 0.036 | -0.0025 ± 0.0021 | -0.0055 ± 0.012 | 0.004 ± 0.014 | -0.0245 ± 0.028 | -0.0145 ± 0.011 | -0.0045 ± 0.015 | -0.012 ± 0.0057 | -0.0165 ± 0.016 | 0.039 | 0.0075 ± 0.026 | -0.0055 ± 0.0035 | -0.0115 ± 0.013 | 0.0115 ± 0.026
3 | 4H:CD62P/P-selectin | 0.0015 ± 0.011 | 0.0055 ± 0.021 | -0.001 ± 0.065 | 0.0815 ± 0.023 | 0.0065 ± 0.064 | -0.064 ± 0.047 | -0.102 ± 0.036 | -0.003 ± 0.078 | 0.051 ± 0.067 | 0.032 ± 0.016 | -0.0155 ± 0.035 | 0.0045 ± 0.016 | -0.0085 ± 0.015 | -0.0165 ± 0.012 | -0.007 ± 0.0085 | -0.032 | -0.019 ± 0.062 | -0.007 ± 0.031 | -0.0075 ± 0.036 | -0.108 ± 0.011
4 | BT:sIL-2 | 0.0535 ± 0.011 | 0.0415 ± 0.069 | -0.0175 ± 0.066 | -0.0565 ± 0.1 | 0.0045 ± 0.1 | -0.011 ± 0.016 | -0.511 ± 0.23 | 0.026 ± 0.013 | -0.0265 ± 0.005 | -0.025 ± 0.045 | -0.0155 ± 0.079 | -0.059 ± 0.044 | -0.025 ± 0.04 | 0.0225 ± 0.057 | -0.01 ± 0.031 | -0.002 | -0.017 ± 0.11 | -0.033 ± 0.1 | -0.164 ± 0.037 | -0.629 ± 0.044
5 | BF4T:CD54/ICAM-1 | -0.002 ± 0.0099 | 0.0175 ± 0.025 | -0.0085 ± 0.0021 | -0.0355 ± 0.0064 | -0.0085 ± 0.0078 | -0.013 ± 0.0099 | -0.064 ± 0.014 | 0.0045 ± 0.0064 | 0.004 ± 0.014 | 0.006 ± 0.013 | -0.027 ± 0.0085 | -0.002 ± 0.0014 | -0.0115 ± 0.019 | -0.001 ± 0.0085 | -0.006 ± 0.017 | 0.039 | 0.007 ± 0.02 | -0.0025 ± 0.013 | -0.012 ± 0.0071 | -0.0155 ± 0.022
6 | BE3C:EGFR | 0.01 ± 0.014 | 0.0145 ± 0.044 | -0.004 ± 0.0014 | -0.101 ± 0.015 | -0.003 | -0.0065 ± 0.00071 | -0.014 ± 0.023 | 0.0125 ± 0.0092 | -0.0005 ± 0.0092 | 0.0095 ± 0.0021 | -0.0045 ± 0.021 | 0 ± 0.018 | 0.0005 ± 0.0092 | -0.009 ± 0.0014 | -0.013 ± 0.014 | -0.022 | 0.007 ± 0.02 | -0.0125 ± 0.0035 | -0.0055 ± 0.005 | -0.0095 ± 0.019
